Test results reported in ChEMBL document CHEMBL1201862, “PubChem BioAssay data set” (2004).
The source made the active and inactive calls.

How the values were obtained:
[1] = target: T1, Sentrin-specific protease 1 (Homo sapiens, UniProt Q9P0U3); test: potency of human SENP1 inhibitors, dose response, biochemical, kinetic FRET (AID 651697); type: functional; conditions: read-out: IC50_Mean
T1 sequence (Q9P0U3 whole entry): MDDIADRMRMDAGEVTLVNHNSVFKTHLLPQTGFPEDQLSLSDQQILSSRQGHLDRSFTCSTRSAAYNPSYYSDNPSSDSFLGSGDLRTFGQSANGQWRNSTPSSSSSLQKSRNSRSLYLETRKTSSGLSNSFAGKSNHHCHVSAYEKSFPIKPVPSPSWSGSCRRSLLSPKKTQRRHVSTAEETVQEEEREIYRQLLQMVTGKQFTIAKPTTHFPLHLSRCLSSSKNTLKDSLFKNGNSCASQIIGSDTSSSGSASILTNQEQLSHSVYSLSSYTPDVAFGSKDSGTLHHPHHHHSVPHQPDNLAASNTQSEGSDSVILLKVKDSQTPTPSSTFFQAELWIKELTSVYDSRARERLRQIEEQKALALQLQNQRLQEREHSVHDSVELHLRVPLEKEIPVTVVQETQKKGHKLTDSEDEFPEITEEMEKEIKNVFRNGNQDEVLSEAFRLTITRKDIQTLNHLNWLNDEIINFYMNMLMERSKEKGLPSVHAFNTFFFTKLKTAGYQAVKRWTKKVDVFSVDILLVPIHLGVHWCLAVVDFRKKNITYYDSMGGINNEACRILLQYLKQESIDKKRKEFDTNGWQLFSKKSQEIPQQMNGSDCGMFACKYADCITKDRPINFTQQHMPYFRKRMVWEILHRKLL

[2] = target: T1, Sentrin-specific protease 1; test: Dose response confirmation of small molecule inhibitors of the catalytic domain of the SUMO protease, SENP1 in a FRET assay.; type: functional; conditions: read-out: IC50_Mean
[3] = target: T2, Corticotropin-releasing factor receptor 2/Corticotropin-releasing factor-binding protein (Homo sapiens, UniProt P24387+Q13324); test: activators of CRF receptor 2 with binding protein – uHTS hits, confirmation (AID 602473); type: functional; conditions: read-out: EC50_Mean
T2 sequence (Q13324 whole entry): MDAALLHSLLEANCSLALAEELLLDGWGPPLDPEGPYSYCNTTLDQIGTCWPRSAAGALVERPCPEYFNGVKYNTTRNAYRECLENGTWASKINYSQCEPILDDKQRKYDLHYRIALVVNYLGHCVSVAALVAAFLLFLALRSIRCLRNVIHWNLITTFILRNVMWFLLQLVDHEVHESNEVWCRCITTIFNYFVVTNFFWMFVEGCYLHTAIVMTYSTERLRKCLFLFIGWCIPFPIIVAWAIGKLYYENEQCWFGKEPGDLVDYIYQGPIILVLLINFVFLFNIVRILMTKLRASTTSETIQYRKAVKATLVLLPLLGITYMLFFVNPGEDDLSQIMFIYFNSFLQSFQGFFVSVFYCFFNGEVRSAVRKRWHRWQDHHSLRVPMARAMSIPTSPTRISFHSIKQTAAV
T2 sequence (P24387 whole entry): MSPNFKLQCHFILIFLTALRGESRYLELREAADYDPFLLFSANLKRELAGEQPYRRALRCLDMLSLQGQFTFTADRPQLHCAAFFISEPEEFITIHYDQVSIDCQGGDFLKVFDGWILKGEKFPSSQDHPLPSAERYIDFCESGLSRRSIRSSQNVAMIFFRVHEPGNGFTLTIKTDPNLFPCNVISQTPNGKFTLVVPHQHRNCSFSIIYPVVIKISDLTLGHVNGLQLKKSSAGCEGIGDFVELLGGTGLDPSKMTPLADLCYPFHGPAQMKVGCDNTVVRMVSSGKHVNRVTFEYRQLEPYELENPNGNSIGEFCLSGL

[4] = target: T3, Endoribonuclease toxin MazF (Escherichia coli K-12, UniProt P0AE70); test: fluorescent RNA oligo signal without MazF, dose response, counter-screen for MazEF activator project, biochemical, fluorescence, single-stranded RNase substrate (AID 588502); type: functional
T3 sequence (P0AE70 whole entry): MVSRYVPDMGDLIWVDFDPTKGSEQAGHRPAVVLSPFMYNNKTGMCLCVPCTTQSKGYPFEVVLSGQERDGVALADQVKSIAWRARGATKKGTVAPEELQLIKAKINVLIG

[5] = target: T4, Zinc finger protein mex-5 (Caenorhabditis elegans, UniProt Q9XUB2); test: MEX-5/TCR-2 RNA interaction inhibitors, dose response, biochemical, C. elegans, fluorescence polarization (AID 1960)
T4 sequence (Q9XUB2 whole entry): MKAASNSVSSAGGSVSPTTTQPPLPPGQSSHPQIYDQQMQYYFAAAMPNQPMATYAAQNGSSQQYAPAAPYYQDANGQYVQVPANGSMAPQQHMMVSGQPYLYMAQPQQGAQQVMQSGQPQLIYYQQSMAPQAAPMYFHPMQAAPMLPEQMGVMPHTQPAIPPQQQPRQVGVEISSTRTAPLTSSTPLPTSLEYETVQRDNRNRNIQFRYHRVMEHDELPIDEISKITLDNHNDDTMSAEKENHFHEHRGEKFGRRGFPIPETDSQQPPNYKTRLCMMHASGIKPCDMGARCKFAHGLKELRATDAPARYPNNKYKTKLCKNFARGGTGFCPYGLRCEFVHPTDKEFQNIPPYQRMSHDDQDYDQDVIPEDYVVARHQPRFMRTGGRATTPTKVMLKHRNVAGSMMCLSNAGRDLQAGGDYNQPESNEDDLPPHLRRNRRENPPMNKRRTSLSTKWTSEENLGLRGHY

[6] = target: T5, RNA-binding protein pos-1 (Caenorhabditis elegans, UniProt G5EF15); test: inhibitors of POS-1/mex-3 RNA binding, dose response, biochemical, fluorescence polarization (AID 1964);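 further: purified POS-1 fused to maltose binding protein made in E. coli; potency of compounds blocking POS-1 binding to fluorescent RNA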
T5 sequence (G5EF15 whole entry): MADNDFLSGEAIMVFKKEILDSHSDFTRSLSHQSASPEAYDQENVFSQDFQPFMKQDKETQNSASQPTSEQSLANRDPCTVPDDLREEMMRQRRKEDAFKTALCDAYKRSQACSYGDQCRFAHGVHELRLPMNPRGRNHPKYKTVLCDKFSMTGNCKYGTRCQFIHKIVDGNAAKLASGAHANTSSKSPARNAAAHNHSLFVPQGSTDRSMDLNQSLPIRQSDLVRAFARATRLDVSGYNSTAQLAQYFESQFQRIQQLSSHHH

[7] = target: T3, Endoribonuclease toxin MazF; test: MazF toxin RNase activators, dose response, biochemical, fluorescence, single-stranded RNA substrate, uHTS hits (AID 588481); type: functional
[8] = miR-122 activators in hepatoma reporter cells, dose response, cell-based, Huh7 psiCHECK-miR122, Renilla luciferase, cherry-picked (AID 651956); type: functional;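 further: huh7 hepatoma cells stably carrying a psiCHECK-2 miR-122 sensor plasmid; renilla luciferase signal reporting endogenous miR-122 activity after 48 h compound exposure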
[9] = target: T6, Aryl hydrocarbon receptor (Homo sapiens, UniProt P35869); conditions: Potency;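 further: confirmatory quantitative high-throughput screen measuring activation of the AhR signaling pathway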
T6 sequence (P35869 whole entry): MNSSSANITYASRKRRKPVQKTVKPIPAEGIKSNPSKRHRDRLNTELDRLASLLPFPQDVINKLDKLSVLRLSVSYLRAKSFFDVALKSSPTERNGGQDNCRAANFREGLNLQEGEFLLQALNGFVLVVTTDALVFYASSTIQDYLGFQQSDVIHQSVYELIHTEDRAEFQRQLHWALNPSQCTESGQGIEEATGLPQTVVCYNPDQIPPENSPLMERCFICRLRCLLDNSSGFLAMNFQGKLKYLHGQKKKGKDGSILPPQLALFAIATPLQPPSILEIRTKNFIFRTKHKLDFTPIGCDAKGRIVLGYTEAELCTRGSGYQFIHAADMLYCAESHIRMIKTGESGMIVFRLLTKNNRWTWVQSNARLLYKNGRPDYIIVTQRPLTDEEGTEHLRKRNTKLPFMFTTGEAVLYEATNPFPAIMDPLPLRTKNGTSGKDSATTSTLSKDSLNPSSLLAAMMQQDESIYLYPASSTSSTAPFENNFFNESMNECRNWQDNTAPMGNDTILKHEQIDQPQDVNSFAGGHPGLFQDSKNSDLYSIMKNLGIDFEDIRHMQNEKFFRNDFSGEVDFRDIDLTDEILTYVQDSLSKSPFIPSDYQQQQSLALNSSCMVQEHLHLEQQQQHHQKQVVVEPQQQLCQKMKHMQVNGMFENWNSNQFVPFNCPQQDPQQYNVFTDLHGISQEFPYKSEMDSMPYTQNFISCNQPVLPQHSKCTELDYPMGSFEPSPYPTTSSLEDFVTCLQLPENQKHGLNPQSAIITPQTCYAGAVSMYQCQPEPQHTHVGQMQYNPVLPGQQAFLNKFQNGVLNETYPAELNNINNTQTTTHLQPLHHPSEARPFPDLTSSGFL

Which IC50 [1] does the source give for `NC(=S)c1cc2cc(Br)ccc2oc1=O` here?
The IC50 was 5.2 µM (active).

What about the IC50 [2] of the same molecule?
Its IC50 is 3.31 µM (active).

Which results are given for `C=CCN1C(=O)/C(=C2/Sc3ccc(OC)cc3N2CC)SC1=S`?
EC50 [3]: > 53 µM (inactive); EC50 [4]: > 99 µM (inactive); EC50 [5]: > 300 µM (not active); EC50 [6]: > 300 µM (inconclusive); EC50 [7]: > 99 µM (inactive)

With `Cc1ccc(-c2cnc3c(c2)C(=O)N([C@H](C)CO)C[C@@H](C)[C@H](CN(C)CC2CCCCC2)O3)cc1` as the molecule, how does the AC50 [8] read?
Its AC50 is 18.3 µM (active).

With `O=C(C1CCOCC1)N1[C@H](CO)[C@H]2c3ccccc3NC[C@H]21` as the molecule, how does the AC50 [8] read?
The AC50 was 30 µM (active).

With `C1=C/CC/C=C/CC/C=C/CC/1` as the molecule, how does the AC50 [9] read?
The AC50 was 44.7 µM (inconclusive).

Which AC50 [9] does the source give for `CCOP(=S)(OCC)Oc1ccc2c(C)c(Cl)c(=O)oc2c1` [COUMAPHOS] here?
The AC50 was 0.178 µM (inconclusive).
